Measured values published in US20240174696A1, “2,8-DIAZASPIRO[4.5]DECANE COMPOUNDS” (Genentech, Inc., priority 2021, published 2024).
pEC50, pKi: −log10 of the molar value.

Columns and labels:
[1] = molecular target: Human LATS2 catalytic domain (Homo sapiens (Human), UniProt Q9NRM7); experiment: LATS2 High ATP HTRF Assay; assay type: biochemical; settings: no asterisk: LATS2 High ATP HTRF Assay, 5000 μM ATP, 0.05 nM LATS2
Outline: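 Phosphorylation of 0.5 μM STK S1 peptide at high ATP (5000 μM), 2 h at room temperature, by 0.05 nM LATS2 kinase domain/Mob1b complex after 10 min compound pre-incubation. Ki derived from HTRF-based IC50 (4-parameter logistic) by Cheng-Prusoff, ATP Km 105 μM.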

[2] = system: TAZ nuclear translocation in SW1990 cells; experiment: TAZ Nuclear Translocation Assay; assay type: cell-based; settings: Homo sapiens, 4 hours
Outline: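 SW1990 cells in RPMI1640/10% FBS treated with compounds for 4 h at 37 °C, then fixed and immunostained for TAZ with Hoechst nuclear counterstain and imaged by high-content imaging. Read-out is the nuclear/cytoplasmic-ring fluorescence ratio, normalized to DMSO (0%) and an inhibitor control (100%); EC50 from four-parameter fit.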

[3] = system: pYAP(Ser127) in SW1990 cells; experiment: pYAP(Ser127) HTRF Cellular Assay; assay type: cell-based; settings: Homo sapiens, 4 hours
Experimental: The SW1990 cells were seeded at 8000 cells/well by adding 30 μL/well of cells in RPMI1640, 10% FBS, 2 mM glutamine culture media to a 384-well plate (Corning 3570). The cells were incubated overnight at 37° C. Next day, compounds were directly added to the cells using the Echo Liquid Handler (Labcyte), incubate at 37° C. for 4 hours.
The HTRF assay was performed using the Cisbio phospho-YAP Ser127 HTRF kit (64YAPPEG). The media was aspirated from the cells. 20 μL of 1X lysis/blocking buffer was added to the cells, gently shake for 30 minutes at room temperature. 1 μL of the premixed antibody solution (1:40 dilution of each phospho-YAP Eu Cryptate antibody and phospho-YAP d2 antibody) was added to the cells. The plate was sealed and incubated overnight at room temperature. The HTRF (665 nm/620 nm) signal was read on the PHERAstar reader (BMG Labtech). The EC50 values were calculated by fitting the % inhibition with a nonlinear four-parameter logistical equation.

Chain of Human LATS2 catalytic domain (Q9NRM7 553-1088): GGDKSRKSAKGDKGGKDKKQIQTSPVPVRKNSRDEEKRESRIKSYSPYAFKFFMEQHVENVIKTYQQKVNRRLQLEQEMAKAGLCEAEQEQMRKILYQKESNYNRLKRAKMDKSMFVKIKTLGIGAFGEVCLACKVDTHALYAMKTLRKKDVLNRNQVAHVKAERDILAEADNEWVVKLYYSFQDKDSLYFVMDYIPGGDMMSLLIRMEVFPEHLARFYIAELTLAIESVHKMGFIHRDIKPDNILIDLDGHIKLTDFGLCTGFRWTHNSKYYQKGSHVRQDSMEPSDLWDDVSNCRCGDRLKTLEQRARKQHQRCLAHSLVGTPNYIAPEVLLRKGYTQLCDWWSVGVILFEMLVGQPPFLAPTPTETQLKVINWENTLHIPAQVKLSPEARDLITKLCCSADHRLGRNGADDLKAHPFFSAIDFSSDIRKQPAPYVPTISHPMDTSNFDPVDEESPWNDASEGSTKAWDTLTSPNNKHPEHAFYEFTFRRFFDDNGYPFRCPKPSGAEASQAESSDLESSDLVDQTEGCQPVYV
Chain of Human LATS2 catalytic domain (Q7L9L4 whole entry partner, the tested form may be a part): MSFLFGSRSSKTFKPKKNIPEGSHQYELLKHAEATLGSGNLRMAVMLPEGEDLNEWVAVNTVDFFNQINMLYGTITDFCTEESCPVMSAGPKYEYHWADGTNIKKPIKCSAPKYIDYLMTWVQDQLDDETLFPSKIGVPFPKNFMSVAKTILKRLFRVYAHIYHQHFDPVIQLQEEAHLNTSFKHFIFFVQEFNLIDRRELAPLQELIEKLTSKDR

c1cc(-c2nc(N3CCC4(CC3)CCN([C@@H]3CCOC3)C4)c3ccncc3n2)ccn1 (single isomer, unassigned) [Compound 112]
pKi [1]: 8.97 | pEC50 [2]: 6.15 | pEC50 [3]: 6.03

FC(F)Oc1cncc2nc(-c3ccncc3)nc(N3CCC4(CCNC4)CC3)c12 [Compound 274, 5-(difluoromethoxy)-2-(pyridin-4-yl)-4-(2,8-diazaspiro[4.5]decan-8-yl)pyrido[3,4-d]pyrimidine]
pKi [1]: 10.70 | pEC50 [2]: 6.74

COc1cnc(Cl)c2nc(-c3ccncc3)nc(N3CCC4(CCN(C)C4)CC3)c12 [Compound 275, 8-chloro-5-methoxy-4-(2-methyl-2,8-diazaspiro[4.5]decan-8-yl)-2-(pyridin-4-yl)pyrido[3,4-d]pyrimidine]
pKi [1]: 10.70 | pEC50 [2]: 6.51

COCC1CC2(CCN(c3nc(-c4ccncc4)nc4cncc(OC)c34)CC2)CN1 (stereo not shown) [Compound 276, 5-methoxy-4-(3-(methoxymethyl)-2,8-diazaspiro[4.5]decan-8-yl)-2-(pyridin-4-yl)pyrido[3,4-d]pyrimidine]
pKi [1]: 9.72 | pEC50 [2]: 6.39

CN1CCC2(CCN(c3nc(-c4ccncc4)nc4cncc(OC5CC(C#N)C5)c34)CC2)C1 (stereo not shown) [Compound 277, 3-((4-(2-Methyl-2,8-diazaspiro[4.5]decan-8-yl)-2-(pyridin-4-yl)pyrido[3,4-d]pyrimidin-5-yl)oxy)cyclobutane-1-carbonitrile]
pKi [1]: 9.96 | pEC50 [2]: 6.54

COc1cncc2nc(-c3ccncc3)nc(N3CCC4(CCNC4=O)CC3)c12 [Compound 279, 8-(5-methoxy-2-(pyridin-4-yl)pyrido[3,4-d]pyrimidin-4-yl)-2,8-diazaspiro[4.5]decan-1-one]
pKi [1]: 8.35 | pEC50 [2]: 5.28

COc1cncc2nc(-c3ccncc3)nc(N3CCC4(CCN(CC(F)F)C4)CC3)c12 [Compound 280, 4-(2-(2,2-difluoroethyl)-2,8-diazaspiro[4.5]decan-8-yl)-5-methoxy-2-(pyridin-4-yl)pyrido[3,4-d]pyrimidine]
pKi [1]: 10.41 | pEC50 [2]: 6.24

c1cc(-c2cc3cnccc3c(N3CCC4(CCNC4)CC3)n2)ccn1 [Example 199, 3-(Pyridin-4-yl)-1-(2,8-diazaspiro[4.5]decan-8-yl)-2,6-naphthyridine]
pKi [1]: 8.48 | pEC50 [2]: 5.21

CCc1cncc2nc(-c3ccncc3)nc(N3CCC4(CCNC4)CC3)c12 [Example 204, 5-Ethyl-2-(pyridin-4-yl)-4-(2,8-diazaspiro[4.5]decan-8-yl)pyrido[3,4-d]pyrimidine]
pKi [1]: 8.96 | pEC50 [2]: 6.00

OC1(CN2CCC3(CCN(c4nc(-c5ccncc5)nc5cnccc45)CC3)C2)CCC1 [Example 205, 1-((8-(2-(Pyridin-4-yl)pyrido[3,4-d]pyrimidin-4-yl)-2,8-diazaspiro[4.5]decan-2-yl)methyl)cyclobutan-1-ol]
pKi [1]: 9.64 | pEC50 [2]: 6.77

OCC1CC2(CCN(c3nc(-c4ccncc4)nc4cnccc34)CC2)CN1C1CCCC1 (stereo not shown) [Example 206, (2-cyclopentyl-8-(2-(pyridin-4-yl)pyrido[3,4-d]pyrimidin-4-yl)-2,8-diazaspiro[4.5]decan-3-yl)methanol]
pKi [1]: 10.00 | pEC50 [2]: 6.77

OC1(CN2CCC3(CCN(c4nc(-c5ccncc5)nc5cnccc45)CC3)C2)COC1 [Example 211, 3-((8-(2-(Pyridin-4-yl)pyrido[3,4-d]pyrimidin-4-yl)-2,8-diazaspiro[4.5]decan-2-yl)methyl)oxetan-3-ol]
pKi [1]: 9.96 | pEC50 [2]: 6.38

FC(F)c1[nH]ncc1-c1nc(N2CCC3(CCNC3)CC2)c2ccncc2n1 [Example 213, 2-(5-(difluoromethyl)-1H-pyrazol-4-yl)-4-(2,8-diazaspiro[4.5]decan-8-yl)pyrido[3,4-d]pyrimidine]
pKi [1]: 9.22 | pEC50 [2]: < 5.00

CNc1cc2c(N3CCC4(CCN(C)C4)CC3)nc(-c3ccncc3)nc2cn1 [Example 214, N-methyl-4-(2-methyl-2,8-diazaspiro[4.5]decan-8-yl)-2-(pyridin-4-yl)pyrido[3,4-d]pyrimidin-6-amine]
pKi [1]: 8.00 | pEC50 [2]: 6.07

CN(C)S(=O)(=O)CCN1CCC2(CCN(c3nc(-c4ccncc4)nc4cnccc34)CC2)C1 [Example 215, N,N-dimethyl-2-(8-(2-(pyridin-4-yl)pyrido[3,4-d]pyrimidin-4-yl)-2,8-diazaspiro[4.5]decan-2-yl)ethanesulfonamide]
pKi [1]: 8.92 | pEC50 [2]: 5.82

Cc1n[nH]cc1-c1nc(N2CCC3(CCN(CCF)C3)CC2)c2ccncc2n1 [Example 219, 4-(2-(2-fluoroethyl)-2,8-diazaspiro[4.5]decan-8-yl)-2-(3-methyl-1H-pyrazol-4-yl)pyrido[3,4-d]pyrimidine]
pKi [1]: 10.17 | pEC50 [2]: 6.34

Cc1[nH]ncc1-c1nc(N2CCC3(CCN(CC(F)F)C3)CC2)c2ccncc2n1 [Example 220, 4-(2-(2,2-difluoroethyl)-2,8-diazaspiro[4.5]decan-8-yl)-2-(3-methyl-1H-pyrazol-4-yl)pyrido[3,4-d]pyrimidine]
pKi [1]: 10.13 | pEC50 [2]: 6.18

FC1(F)CNCC12CCN(c1nc(-c3ccncc3)nc3cnccc13)CC2 [Example 223, 4-(4,4-difluoro-2,8-diazaspiro[4.5]decan-8-yl)-2-(pyridin-4-yl)pyrido[3,4-d]pyrimidine]
pKi [1]: 8.57 | pEC50 [2]: < 5.00

CS(=O)(=O)NCC1CC2(CCN(c3nc(-c4ccncc4)nc4cnccc34)CC2)CN1 (stereo not shown) [Example 224, N-((8-(2-(pyridin-4-yl)pyrido[3,4-d]pyrimidin-4-yl)-2,8-diazaspiro[4.5]decan-3-yl)methyl)methanesulfonamide]
pKi [1]: 9.80 | pEC50 [2]: 5.05

Brc1cncc2nc(-c3ccncc3)nc(N3CCC4(CCNC4)CC3)c12 [Example 225, 5-Bromo-2-(pyridin-4-yl)-4-(2,8-diazaspiro[4.5]decan-8-yl)pyrido[3,4-d]pyrimidine]
pKi [1]: 8.68 | pEC50 [2]: 5.74

Cc1n[nH]cc1-c1nc(N2CCC3(CCN(C)C3)CC2)c2cc(Cc3ccccc3)ncc2n1 [Example 226, 6-benzyl-2-(3-methyl-1H-pyrazol-4-yl)-4-(2-methyl-2,8-diazaspiro[4.5]decan-8-yl)pyrido[3,4-d]pyrimidine]
pKi [1]: 10.80 | pEC50 [2]: 6.89

Cc1n[nH]cc1-c1nc(N2CCC3(CCN(C)C3)CC2)c2cc(Cc3cccnc3)ncc2n1 [Example 227, 2-(3-methyl-1H-pyrazol-4-yl)-4-(2-methyl-2,8-diazaspiro[4.5]decan-8-yl)-6-(pyridin-3-ylmethyl)pyrido[3,4-d]pyrimidine]
pKi [1]: 10.07 | pEC50 [2]: 5.64

Cc1n[nH]cc1-c1nc(N2CCC3(CCNC3)CC2)c2ccnc(Cl)c2n1 [Example 232, 8-chloro-2-(3-methyl-1H-pyrazol-4-yl)-4-(2,8-diazaspiro[4.5]decan-8-yl)pyrido[3,4-d]pyrimidine]
pKi [1]: 10.21 | pEC50 [2]: 5.37

COc1cncc2nc(-c3ccncc3)nc(N3CCC4(CCNC4)CC3)c12 [Example 233, 5-Methoxy-2-(pyridin-4-yl)-4-(2,8-diazaspiro[4.5]decan-8-yl)pyrido[3,4-d]pyrimidine]
pKi [1]: 10.55 | pEC50 [2]: 6.59

F[C@@H]1CNCC12CCN(c1nc(-c3ccncc3)nc3cnccc13)CC2 [Example 234, (S)-4-(4-fluoro-2,8-diazaspiro[4.5]decan-8-yl)-2-(pyridin-4-yl)pyrido[3,4-d]pyrimidine]
pKi [1]: 8.35 | pEC50 [2]: 5.38

F[C@H]1CNCC12CCN(c1nc(-c3ccncc3)nc3cnccc13)CC2 [Example 235, (R)-4-(4-fluoro-2,8-diazaspiro[4.5]decan-8-yl)-2-(pyridin-4-yl)pyrido[3,4-d]pyrimidine]
pKi [1]: 8.89 | pEC50 [2]: 5.74

Cc1n[nH]cc1-c1nc(N2CCC3(CCN(C)C3)CC2)c2cc(Cc3ccncc3)ncc2n1 [Example 236, 2-(3-methyl-1H-pyrazol-4-yl)-4-(2-methyl-2,8-diazaspiro[4.5]decan-8-yl)-6-(pyridin-4-ylmethyl)pyrido[3,4-d]pyrimidine]
pKi [1]: 9.31 | pEC50 [2]: 5.92

Cc1n[nH]cc1-c1nc(N2CCC3(CCN(C)C3)CC2)c2cc(Cc3ccccn3)ncc2n1 [Example 238, 2-(3-methyl-1H-pyrazol-4-yl)-4-(2-methyl-2,8-diazaspiro[4.5]decan-8-yl)-6-(pyridin-2-ylmethyl)pyrido[3,4-d]pyrimidine]
pKi [1]: 9.60 | pEC50 [2]: 5.64

OCc1cncc2nc(-c3ccncc3)nc(N3CCC4(CCNC4)CC3)c12 [Example 239, (2-(Pyridin-4-yl)-4-(2,8-diazaspiro[4.5]decan-8-yl)pyrido[3,4-d]pyrimidin-5-yl)methanol]
pKi [1]: 8.31 | pEC50 [2]: < 5.00

CC(C)c1cncc2nc(-c3ccncc3)nc(N3CCC4(CCNC4)CC3)c12 [Example 240, 5-Isopropyl-2-(pyridin-4-yl)-4-(2,8-diazaspiro[4.5]decan-8-yl)pyrido[3,4-d]pyrimidine]
pKi [1]: 8.70 | pEC50 [2]: 5.49
